Measurements from US20210161997A1, “TREATING DISEASES VIA TARGETED MODULATION OF GENE SIGNALING NETWORKS” (Camp4 Therapeutics Corporation, priority 2018, published 2021).
Counter-ions that a name gives are not always drawn.

What was measured:
Type in all cases: cell-based
MECP2 mRNA [1] = test: MECP2 mRNA in primary human hepatocytes (donor 1, donor 2); conditions: average fold change; for Human hep donor-2 MECP2 (Avg_FC) 1 uM / Human hep donor-2 MECP2 (Avg_FC) 10 uM: human hepatocytes donor-2; for Human hep donor-2 MECP2 (Avg_FC) 1 uM / Human hep donor-1 MECP2 (Avg_FC) 1 uM: compound 1 uM; for Human hep donor-2 MECP2 (Avg_FC) 10 uM / Human hep donor-1 MECP2 (Avg_FC) 10 uM: compound 10 uM; for Human hep donor-1 MECP2 (Avg_FC) 1 uM / Human hep donor-1 MECP2 (Avg_FC) 10 uM: human hepatocytes donor-1
Description: (§1) Human hepatocytes were obtained from two donors from Massachusetts General Hospital, namely MGH54 and MGH63, and one donor from Lonza, namely HUM4111B. Cryopreserved hepatocytes were cultured in plating media for 16 hours, transferred to maintenance media for 4 hours. Cultured on serum-free media for 2 hours, then a compound was added. The hepatocytes were maintained on the serum-free media for 16 hours prior to gene expression analysis. Primary human hepatocytes were stored in the vapor phase of a liquid nitrogen freezer (about −130° C.).
(§2) Human hepatocytes cultured as described above were plated in 24-well format, adding 375,000 cells per well in a volume of 500 ul plating medium. Four hours before treatment, cells were washed with PBS and the medium was changed to either: fresh maintenance medium (complete) or modified maintenance medium.
(§3) Compound stocks were prepared at 1000× final concentration and added in a 2-step dilution to the medium to reduce risk of a compound precipitating out of solution when added to the cells, and to ensure reasonable pipetting volumes. One at a time, each compound was first diluted 10-fold in warm (about 37° C.) modified maintenance medium (initial dilution=ID), mixed by vortexing, and the ID was diluted 100-fold into the cell culture (e.g. 5.1 ul into 1 well of a 24-well plate containing 0.5 mL medium). The plate was mixed by carefully swirling and after all wells were treated and returned to the incubator overnight. If desired, separate plates/wells were treated with vehicle-only controls and/or positive controls. If using multi-well plates, controls were included on each plate. After about 18 hours, cells were harvested for further analysis, e.g., ChIP-seq, RNA-seq, ATAC-seq, etc.
Samples were amplified using Taqman probes from ThermoFisher.

MECP2 mRNA [2] = test: MECP2 mRNA in stellate cells; conditions: average fold change; for Stellate MECP2 (Avg_FC) 1 uM: compound 1 uM; for Stellate MECP2 (Avg_FC) 10 uM: compound 10 uM
ANGPTL3 = test: RNA-seq of ANGPTL3 expression in compound-treated primary human hepatocytes; conditions: additional compounds (Table 13), linear fold change
Description: as §1, §2, §3
(§4) This protocol is a modified version of the following protocols: MagMAX mirVana Total RNA Isolation Kit User Guide (Applied Biosystems #MAN0011131 Rev B.0), NEBNext Poly(A) mRNA Magnetic Isolation Module (E7490), and NEBNext Ultra Directional RNA Library Prep Kit for Illumina (E7420) (New England Biosystems #E74901).
(§5) The MagMAX mirVana kit instructions (the section titled “Isolate RNA from cells” on pages 14-17) were used for isolation of total RNA from cells in culture. Two hundred μl of Lysis Binding Mix was used per well of the multiwell plate containing adherent cells (usually a 24-well plate).
(§6) For mRNA isolation and library prep, the NEBNext Poly(A) mRNA Magnetic Isolation Module and Directional Prep kit was used. RNA isolated from cells above was quantified, and prepared in […] of each sample in 50 μl of nuclease-free water. This protocol may be run in microfuge tubes or in a 96-well plate.
All pass filter reads from each sample were mapped against the human genome (assembly GRCh38/GCA_000001405.15 “no alt” analysis set merged with hs38d1/GCA_000786075.2) using two pass mapping via STAR version 2.5.3a (alignment parameters alignIntronMin=20; alignIntronMax=1000000; outFilterMismatchNmax=999; outFilterMismatchNoverLmax=0.05; outFilterType=BySJout; outFilterMultimapNmax=20; alignSJoverhangMin=8; alignSJDBoverhangMin=1; alignMatesGapMax=1000000) (Dobin et al., Bioinformatics (2012) 29(1):15-21). Genomic alignments were converted to transcriptome alignments based on reference transcript annotations from the Human GENCODE Gene Set release 24 (Harrow et al., Genome Res. (2012) 22(9): 1760-1774). Using unique and multimapped transcriptomic alignments, gene-level abundance estimates were computed using RSEM version 1.3.0 (Li and Dewey, BMC Bioinformatics (2011) 12:323) in a strand-aware manner, and including confidence interval sampling calculations, to arrive at posterior mean estimates (PME) of abundances (counts and normalized FPKM—fragments per kilobase of exon per million mapped fragments) from the underlying Bayesian model. Standard QC were applied (read integrity, mapping statistics, library complexity, fragment bias) to remove unsatisfactory samples.

UGT1A1 = test: RNA-seq of UGT1A1 expression in compound-treated primary human hepatocytes
Description: as §1, §2, §3, §4, §5, §6
Standard QC were applied (read integrity, mapping statistics, library complexity, fragment bias) to remove unsatisfactory samples. […] Log 2 fold change and significance values were computed using PME count data (with replicates explicitly modeled versus pan-experiment controls), median ratio normalized, using maximum likelihood estimation rather than maximum a posteriori, and disabling the use of Cook's distance cutoff when determining acceptable adjusted p-values. […] RNA-seq signals were also normalized by read depth and visualized using the UCSC browser.
To identify small molecules that modulate target gene expression, primary human hepatocytes were prepared as a monoculture, and at least one small molecule compound was applied to the cells.
RNA-seq was performed to determine the effects of the compounds on the expression of the target genes in hepatocytes. Fold change was calculated by dividing the level of expression in the cell system that had been perturbed by the level of expression in an unperturbed system. Changes in expression having a p-value ≤0.05 were considered significant.
Significance was defined as an FPKM ≥1, a log 2(fold change) ≥0.5, and a q-value of ≤0.05 for all targets except for CPOX.

Row | Molecule | Human hep donor-2 MECP2 (Avg_FC) 1 uM (MECP2 mRNA [1]) | Human hep donor-2 MECP2 (Avg_FC) 10 uM (MECP2 mRNA [1]) | Stellate MECP2 (Avg_FC) 1 uM (MECP2 mRNA [2]) | Stellate MECP2 (Avg_FC) 10 uM (MECP2 mRNA [2]) | Human hep donor-1 MECP2 (Avg_FC) 1 uM (MECP2 mRNA [1]) | Human hep donor-1 MECP2 (Avg_FC) 10 uM (MECP2 mRNA [1]) | ANGPTL3-LINEAR FOLD CHANGE (ANGPTL3) | UGT1A1 Fold Change (Log2) (UGT1A1)
1 | CCC(=O)N1CCN(c2ccc(-n3c(=O)ccc4cnc5ccc(-c6cnc7ccccc7c6)cc5c43)cc2C(F)(F)F)CC1 [torin1] | 1.34 | 1.79 | 1.87 | 3.65 |  |  |  | 
2 | CN(C)C[C@@H]1CCn2cc(c3ccccc32)C2=C(C(=O)NC2=O)c2cn(c3ccccc23)CCO1.Cl [LY333531 HCl] |  |  | 1.26 | 2.15 | 1.44 | 2.14 |  | 
3 | COc1ccc(Cl)c(Nc2nc3ccccc3nc2NS(=O)(=O)c2cccc(NC(=O)C(C)(C)N)c2)c1 [Pilaralisib (XL147), Pilaralisib] |  |  | 2.28 | 2.21 | 1.95 | 1.75 | 0.2606 | 
4 | CNC(=O)c1cc(Oc2ccc(NC(=O)Nc3ccc(Cl)c(C(F)(F)F)c3)c(F)c2)ccn1 [Regorafenib (BAY 73-4506)] |  |  | 2.31 | 2.77 | 2.05 | 1.92 |  | 
5 | Cc1ccc(F)c(NC(=O)Nc2ccc(-c3cccc4[nH]nc(N)c34)cc2)c1 [Linifanib (ABT-869), Linifanib] |  |  | 2.50 | 3.17 | 1.78 | 2.01 |  | 
6 | CCOc1ccn(-c2ccc(F)cc2)c(=O)c1C(=O)Nc1ccc(Oc2ccnc(N)c2Cl)c(F)c1 [BMS 777607] | 1.35 | 3.04 | 0.97 | 1.92 |  |  |  | 
7 | C=CCNC1=C2C[C@@H](C)C[C@H](OC)[C@H](O)[C@@H](C)/C=C(\C)[C@H](OC(N)=O)[C@@H](OC)/C=C\C=C(/C)C(=O)NC(=CC1=O)C2=O [17-AAG (Tanespimycin)/KOS-953] |  |  | 2.43 | 2.21 | 1.63 | 2.80 |  | 
8 | NC(=O)c1ccc(I)c([N+](=O)[O-])c1 [Iniparib (BSI-201)] |  |  | 2.39 | 2.26 | 2.28 | 2.15 |  | 
9 | c1cc(OCCN2CCCCC2)cc(-c2n[nH]c3ccc(-c4nc[nH]n4)cc23)c1 [CC-401 hydrochloride] |  |  | 1.92 | 2.69 | 1.84 | 2.03 |  | 
10 | O=C(O)[C@]1(Cc2cccc(Nc3nccs3)n2)CC[C@@H](Oc2cccc(Cl)c2F)CC1 [MK-5108 (VX-689)] |  |  | 2.17 | 2.01 | 2.42 | 2.35 |  | 
11 | O=C1NC(=O)C(c2cnc3ccccn23)=C1c1cn2c3c(cc(F)cc13)CN(C(=O)N1CCCCC1)CC2 [LY2090314] |  |  | 2.65 | 2.20 | 2.43 | 1.94 | 0.1895 | 
12 | CC(C)n1nc(-c2ccc3oc(N)nc3c2)c2c(N)ncnc21 [INK-128] | 2.16 | 2.52 | 1.33 | 2.42 |  |  |  | 
13 | CCc1ccc(CCOc2ccc(CC3SC(=O)NC3=O)cc2)nc1 (stereo not shown) [Pioglitazone HCl] |  |  | 1.94 | 1.86 | 2.21 | 2.27 |  | 
14 | COc1cccc(-c2cc(F)ccc2[C@H]2Cc3nc(N)nc(C)c3C(=O)N2)n1 [HSP-990] | 1.27 | 1.66 | 1.98 | 1.99 | 2.54 | 2.72 |  | 
15 | CC(=O)c1cccc(-c2cccc(-c3ccn(CCN4CCOCC4)n3)c2)c1 [LRH-1 antagonist] |  |  |  |  |  |  |  | 0.91 Log2
16 | CCCn1c(=O)c2[nH]c(C34CC5CC(CC3C5)C4)nc2n(CCC)c1=O [Rolofylline (KW-3902), Rolofylline] |  |  |  |  |  |  |  | 0.66 Log2
17 | Wnt3a: FRIZZLED activator (protein, UniProt P56704 19-352, looked up) Protein Wnt-3a: SYPIWWSLAVGPQYSSLGSQPILCASIPGLVPKQLRFCRNYVEIMPSVAEGIKIGIQECQHQFRGRRWNCTTVHDSLAIFGPVLDKATRESAFVHAIASAGVAFAVTRSCAEGTAAICGCSSRHQGSPGKGWKWGGCSEDIEFGGMVSREFADARENRPDARSAMNRHNNEAGRQAIASHMHLKCKCHGLSGSCEVKTCWWSQPDFRAIGDFLKDKYDSASEMVVEKHRESRGWVETLRPRYTYFKVPTERDLVYYEASPNFCEPNPETGSFGTRDRTCNVSSHGIDGCDLLCCGRGHNARAERRREKCRCVFHWCCYVSCQECTRVYDVHTCK |  |  |  |  |  |  |  | 0.59 Log2
18 | Anti mullerian hormone: TGF-beta activator (protein, UniProt P03971 452-560, looked up) Muellerian-inhibiting factor: SAGATAADGPCALRELSVDLRAERSVLIPETYQANNCQGVCGWPQSDRNPRYGNHVVLLLKMQVRGAALARPPCCVPTAYAGKLLISLSEERISAHHVPNMVATECGCR |  |  |  |  |  |  |  | 0.59 Log2
